From BindingDB's records for doi:10.1021/jm00177a018 (1980)
pKi: −log10 of the molar value.

Molecular target: Aldehyde oxidase (Oryctolagus cuniculus)
Assay: Tested for its ability to inhibit rabbit liver aldehyde oxidase catalyzed oxidation of N-methyl-nicotinamide (NMN)

Row | SMILES | pKi
1 | CCOC(CCP(=O)(OCC)OCC)OCC | 3.70
2 | CCOP(=O)(CCC=O)c1ccccc1 (stereo not drawn) | 4.00
3 | CCOP(=O)(CC=O)OCC | 3.52
